Results: ChEMBL document CHEMBL1133589, “N-3-substituted imidazoquinazolinones: potent and selective PDE5 inhibitors as potential agents for treatment of erectile dysfunction” (J Med Chem, 2000)

Assays:
[1] = Relative inhibition of PDE4 of rat kidney and PDE5 of human platelets
[2] = Relative ihibition of bovine retina PDE6 and PDE5 of human platelets
[3] = Relative inhibition of bovine heart PDE1 and PDE5 of human platelets
[4] = Relative inhibition of PDE2 of rat kidney and PDE5 of human platelets
[5] = target: cGMP-specific 3',5'-cyclic phosphodiesterase (Homo sapiens, UniProt O76074); test: Inhibition of phosphodiesterase type 5 (PDE5) of human platelets

Compound	IC50 ratio [1]	IC50 ratio [2]	IC50 ratio [3]	IC50 ratio [4]	IC50 [5] [nM]
CCCOc1ccc(C(N)=O)cc1-c1nc(O)c2cc3c(cc2n1)ncn3Cc1ccc(F)cc1	4200	60	> 100000	> 100000	0.48
CCCOc1ccc(S(=O)(=O)N2CCN(C)CC2)cc1-c1nc(O)c2cc3[nH]cnc3cc2n1	1600	2	90	1300	–
CCCOc1ccc(S(=O)(=O)N2CCN(C)CC2)cc1-c1nc(O)c2cc3c(cc2n1)ncn3Cc1ccccc1	600	20	3400	> 10000	5.3
CCCOc1ccccc1-c1nc(O)c2cc3[nH]cnc3cc2n1	100	1	200	360	44
